The text below walks through data of ChEMBL document CHEMBL1148926, “Blanchaquinone: a new anthraquinone from an Australian Streptomyces sp” (2004).

For the assay, the system named is Bacillus subtilis. Description: Antibacterial activity against Bacillus subtilis ATCC 6633 after 24 hrs by microtiter plate assay. It is filed as functional.
`COC(=O)Cc1cc2c(c(O)c1C(C)=O)C(=O)c1c(O)cccc1C2=O` yielded an LD99 of 3 µg/mL.

`COC(=O)[C@@H]1c2c(O)c3c(c(O)c2[C@@H](O)C[C@]1(O)CC(C)=O)C(=O)c1c(O)cccc1C3=O` gave an LD99 of 13 µg/mL.

As to `CCCCC(=O)c1c(CC(=O)OC)cc2c(c1O)C(=O)c1c(O)cccc1C2=O` [BLANCHAQUINONE], the LD99 was 6 µg/mL.

On to `COC(=O)[C@@H]1c2c(O)c3c(c(O)c2[C@@H](O)C[C@@]1(C)O)C(=O)c1c(O)cccc1C3=O`, for which the LD99 is 6 µg/mL.

As to `CC[C@@]1(O)C[C@H](O)c2c(O)c3c(c(O)c2[C@H]1C(=O)OC)C(=O)c1cccc(O)c1C3=O`, the LD99 came to 0.8 µg/mL.

For the compound `CCc1ccc2c(O)c3c(c(O)c2c1)C(=O)c1cccc(O)c1C3=O`, the LD99 came out at 13 µg/mL.
